# Assay results as given in patent US9345744B2, “Peptide-based collagen modulators for wound healing and tissue repair” (MUSC FOUNDATION FOR RESEARCH DEVELOPMENT, priority 2012, dated 2016).
# “Also recorded” adds a separate entry of the source. Read-outs that look alike come from different tables or passages of the source.
# Assays:
# [1] = test system: Sprague Dawley rats, latissimus dorsi muscle; assay: Silicon wafer implant with exogenous ATP or apyrase, histology at 24 hours; assay type: in vivo, rat; conditions: for inflammatory infiltrate in the implant region: implant plus exogenous agent
# From the text: FIG. 16. A composite panel of microscopy images taken from H&E stained sections of muscle tissue adjacent to the silicon implant. […] The other images in the panel are high magnification showing areas of high inflammation and necrosis bottom two panels and relatively low inflammation away from the implant site, upper right. The top right set of images is from the tissue adjacent to the implant that had also been treated with exogenous ATP. […] And that by modulating the ATP signal we can potentially modulate the initial inflammatory reaction.
# 15 male Sprague Dawley rats underwent unilateral implantation of silicon wafer implants. Three animals received implants only, three received implants plus exogenous ATP, three received implants plus exogenous apyrase, an enzyme that scavenges ATP, three underwent surgery alone without an implant, and three received a percutaneous injection of exogenous ATP into the latissimus dorsi muscle. The implants were harvested after 24 hours to evaluate the extent of inflammatory infiltrate and preservation of muscle.
# [2] = test system: HMVECs; assay: ATP release from endothelial cells; assay type: cell-based, human
# Description: FIG. 15. ATP is released from endothelial cells in response to low Ca^2+ and the inflammatory cytokine IL-6. HMVECs were treated for 5 hours with either nothing or IL-6 (0.01 ng/mL). After the 5 hr incubation, HBSS (w/Ca^2+ and Mg^2+)—25 mM HEPES was added to one set of controls (“Control”) and the IL-6 treated cells for 5 min. To the other set of control wells, HBSS (w/o Ca^2+ and Mg^2+)—25 mM HEPES was added as a positive control for Cx43 hemichannel-mediated ATP release (“Low Ca^2+”). The error bars represent the standard error for replicates within the same experiment.
# The possibility that Cx43 acts as a mediator of inflammation through hemichannel mediated release of ATP was further examined Studies on ATP release in the HeLa cell models, as well as primary human microvascular endothelial cells (HMVECs), were performed. […] However, the inventors also observed that, in preliminary experiments, ATP released in response to low Ca^2+ was not inhibited by treatment with mefloquine, a commonly used connexin channel blocker. Endothelial cells may also release ATP through vesicular exocytotic mechanisms in a Ca^2+ dependent manner (Bodin and Burnstock, 2001; McDonald et al., 2010). Pannexin channels, which can also mediate ATP release, are similarly sensitive to mefloquine (Lohman et al., 2012; Bodin et al, 2001).
# [3] = biological target: T1, Cx43 hemichannel (Homo sapiens, UniProt P17302); conditions: Rhett et al., 2011; cited from earlier work
# T1 construct: expressed in transfected cells
# T1 sequence (P17302 whole entry): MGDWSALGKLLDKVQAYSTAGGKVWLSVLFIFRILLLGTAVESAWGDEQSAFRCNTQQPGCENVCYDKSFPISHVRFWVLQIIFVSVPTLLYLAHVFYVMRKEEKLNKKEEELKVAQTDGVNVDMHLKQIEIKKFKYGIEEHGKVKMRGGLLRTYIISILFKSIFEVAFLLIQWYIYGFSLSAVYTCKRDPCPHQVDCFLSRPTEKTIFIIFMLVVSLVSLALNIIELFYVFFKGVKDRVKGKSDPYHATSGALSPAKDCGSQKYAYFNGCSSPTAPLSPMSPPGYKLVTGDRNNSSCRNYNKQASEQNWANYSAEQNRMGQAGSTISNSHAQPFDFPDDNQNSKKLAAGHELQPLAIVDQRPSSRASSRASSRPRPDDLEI
# [4] = test system: C57BL/6 mouse, laser-induced CNV; conditions: cited from earlier work
# [5] = test system: rat skin wound; conditions: cited from earlier work
# [6] = test system: CD1 mice, LV cryo-injury; conditions: cited from earlier work
# [7] = test system: neonatal mouse skin wound; conditions: cited from earlier work
# [8] = test system: myocytes from neonatal rats; conditions: 30 μM, 5 days; cited from earlier work
# [9] = cited from earlier work
# [10] = test system: implants in skeletal muscle; assay: Inflammatory infiltrate at implants, myeloperoxidase stain; assay type: in vivo; conditions: 24 hour time point
# From the text: In attempting to quantify the neutrophil infiltrate using a myeloperoxidase stain, the inventors observed that some of the cells stained darker than others. Upon further investigation, these cells were not neutrophils as but rather were macrophages.
# [11] = test system: U87 MG glioblastoma cells; conditions: cited from earlier work
# [12] = test system: neonatal rat cardiac fibroblast cells; assay: Western blot of collagen type I in conditioned media and cell lysates of peptide-treated neonatal cardiac fibroblasts; assay type: cell-based
# From the text: Isolation and treatment of Neonatal Cardiac Fibroblasts with Cx43 based peptides (peptides used included ACT1, JM1, JM2, Antenapedia [ANT], reverse ACT1 [Rev], poly Arginine [poly r]). Neonatal cardiac fibroblasts (NHFs) were isolated from 3-4 day old rat hearts by collagenase digestion (100 U/mL) and differential attachment as previously described (Borg et al., 1984). All cells were maintained in Dulbecco's Modified Eagle Medium (DMEM) supplemented with 10% Fetal Bovine Serum and 100 U/mL penicillin G and 100 μg/mL streptomycin and used prior to passage four. For experiments, 40,000 NHFs were plated into the wells of a 24-well tissue culture plate and grown for 24-48 hours. On the day of treatment, media was removed from each well and replaced with fresh media containing 50 μg/mL L-ascorbic acid-2-phosphate; Sigma Chemical Co., St. Louis, Mo.). The appropriate volume of each peptide (resuspended in sterile, deionized 18 MΩ resistivity water) was added to achieve the desired final concentration (30, 90, 180 μM peptide concentrations were tested). Culture plates were incubated overnight in a 37° C. incubator with 5% CO2.
# Conditioned culture media was collected from each well and stored at −20° C. for analysis of soluble collagen. Cellular protein, including insoluble collagen and collagen still within the NHFs, were isolated by adding 100-200 μL of cell lysis buffer (0.01 M Tris, pH 7.4, 0.001 M Sodium Orthovanadate, 1% sodium dodecylsulfate [SDS]) to each well and incubating 10 minutes at room temperature. Prior to addition, cell lysis buffer was warmed to facilitate solubilzation of SDS and 100 μL of Halt protease inhibitor (Pierce Biotechnology, Rockford, Ill.) was added per 10 mL buffer to be used. […] Protein concentrations of cell lysates were determined using a Micro BCA assay (Pierce). […] The presence of collagen was determined by probing the membranes with a rabbit anti-mouse collagen type I antibody (MD Biosciences) at 1:20,000 dilution in blocking buffer (5% milk in Tris-buffered saline) followed by a goat anti-rabbit IgG horseradish peroxidase conjugated antibody at 1:100,000 (Southern Biotech Associates) and detection with Pierce SuperSignal Femto West detection reagent (Pierce).
# To assess the activity of JM1 and JM2 peptides with respect to collagen production and their potential in mediating wound healing, cardiac fibroblasts were treated with these two peptides and their effectiveness compared to that for the previous described Cx43 peptide ACT1. NHFs were treated with various concentrations of JM1, JM2, ACT1, and ANT (Antenapedia) peptides, vehicle (water) or left untreated and the production of collagen both in the culture media and cell-associated collagen assessed by western blotting. […]
# [13] = test system: NIH-3T3 cells; conditions: 30 μM, cited from earlier work
# [14] = test system: adult rat brain injury; conditions: 100 μM in 2% collagen vehicle; cited from earlier work
# [15] = test system: adult mouse skin wound; conditions: cited from earlier work
# [16] = test system: SD rat cornea; conditions: cited from earlier work
# [17] = test system: ARPE19 cell; conditions: cited from earlier work
# [18] = test system: Sprague-Dawley rats with silicone disks; conditions: cited from earlier work
# [19] = test system: C6 glioma cell line; conditions: cited from earlier work
compound,measurement,setting,value
Nc1ncnc2c1ncn2[C@@H]1O[C@H](COP(=O)(O)OP(=O)(O)OP(=O)(O)O)[C@@H](O)[C@H]1O [ATP],inflammatory infiltrate in the implant region,[1],profound increase in inflammatory infiltrate
same,inflammatory infiltrate in skeletal muscle,"[1]; percutaneous injection, no implant",more inflammatory infiltrate than the surgery alone; also recorded: causes significant inflammation
OC(c1cc(C(F)(F)F)nc2c(C(F)(F)F)cccc12)C1CCCCN1 (stereo not shown) [mefloquine],ATP released in response to low Ca2+,"[2]; treatment with blocker, preliminary experiments",not inhibited
IL-6: the inflammatory cytokine IL-6,ATP release,"[2]; IL-6 0.01 ng/mL, 5 hours",increased ATP release
"RQPKIWFPNRRKPWKKRPRPDDLEI [ACT1, Cx43 carboxyl-terminal peptide incorporating aas 373 to 382 of Cx43, U.S. Pat. No. 7,786,074]",Cx43 hemichannel activity,[3],inhibits Cx43 hemichannel activity
same,CNV lesion size / injury spread,[4]; relative to PBS controls,significantly reduced; also recorded: reduced CNV injury spread
same,retinal function (ERG),[4]; relative to controls,improved retinal function
same,scar area and scar tissue volume / scar size,"[5]; 150 μM peptide, 30 days",significantly (p<0.05) smaller
same,wound closure rates,[5]; versus the other 4 wounds,significantly faster closure rates
same,LV diastolic and systolic function,[6]; 8 week time course,significant improvement
same,scar uniformity,"[6]; mouse, in vivo",significantly increased scar uniformity
same,frequency and severity of arrhythmias,[6]; pacing and S1-S2 protocols,dramatically reduced
same,"wound closure, inflammation, swelling","[7]; 60 μM in 20% pluronic gel, 48 hours","significantly more closed, less inflamed, less swollen"
same,wound appearance / scarring,"[7]; 60 μM, 7 days",smoother and less scarred appearance
same,extent of Cx43 gap junction formation between myocytes,[8],greatly increased
same,peptide in aqueous humor (anterior chamber),"[9]; 100 uM, corneal application, 20 and 40 minutes",detectable level
same,"peptide in vitreous humor (posterior chamber), Western blotting",[9]; 20 and 40 minutes,Lower levels of peptide could also be detected
same,peptide in retinal pigment epithelial layer,[9]; corneal application,detectable in the retinal pigment epithelial layer
same,primary inflammatory infiltrate,[10],macrophages
same,motility across a porous membrane,[11]; Boyden chamber,significantly decreased
same,aggregation,[11],higher degree of aggregation
same,"secretion/production of mature, fully processed type I collagen (conditioned media)","[12]; 30, 90, 180 μM, overnight",decreased levels of fully processed collagen I a1 chains; also recorded: dose-dependent reduction
same,higher molecular weight collagen species in cell lysate,"[12]; ACT1, highest doses of JM1 and JM2",absence of higher molecular weight collagen species
same,mature / processed type I collagen in NHF cell lysate,"[12]; cell lysates, JM1, JM2 at maximum dose tested",slight decreases in processed collagen I a1 chains
same,"collagen synthesis, processing and secretion from fibroblasts","[12]; cultured fibroblasts, FIGS. 1 and 2",reduced collagen processing and secretion
same,repopulation of scratch injury,[13]; 24 hours,few cells repopulating the area
same,proliferation of the cells,[13],reduced proliferation
same,NeuN immunolabeled neurons proximal to the HFM,[14],higher numbers
same,density of GFAP-positive astrocytes adjacent the HFM,[14],much lower density
same,"closure, inflammation, healing and scarring of excisional injuries","[15]; 100 μM in 30% pluronic gel, 10-14 day time course","closed faster, were less inflamed in appearance, healed faster and scarred less"
same,scarring/overall appearance,[15]; 7 and 10 days post-wounding,significantly improved
same,wound redness,[15]; 24 hr and 4 days post-wounding,significantly decreased
same,wound size,"[15]; 24 hr, 4, 7 and 10 days",significantly smaller in size
same,corneal re-epithelialization,[16]; 24 hrs,re-epithelializing much faster than control corneas
same,corneal re-epithelialization,[16]; 72 hrs,significantly greater re-epithelialization
same,corneal closure and regeneration,"[16]; rat, in vivo",faster closure and more complete corneal regeneration
same,VEGF-dependent drop in TER,[17]; pre-treatment with peptide,ameliorated the drop in TER; also recorded: blocked
same,neutrophil infiltration,[18]; capsulectomies days 1-28,attenuating neutrophil infiltration
same,presence of contractile myofibroblasts,"[18]; rat, in vivo",reducing the continued presence of contractile myofibroblasts
same,type I collagen deposition around the implant,"[18]; rat, in vivo",reducing type I collagen deposition around the implant
same,vascularity of the capsule tissue,"[18]; rat, in vivo",increasing vascularity of the capsule tissue
same,motility across a porous membrane,"[19]; C6, Boyden chamber",significantly decreased
same,adhesive properties,[19]; C6,did not change
same,cell morphology,[19]; C6,altered morphology
VEGF,TER,"[17]; VEGF alone, by 4 hours post-application",significantly (p<0.05) reduces TER; also recorded: rapid deterioration
apyrase,inflammatory infiltrate in the implant region,[1],significantly reduced the inflammatory infiltrate; also recorded: marked decrease in inflammatory infiltrate
